Two molecules from patent publication US6355799B1, “Substituted benzene compounds, process for their preparation, and herbicidal and defoliant compositions containing them” (ISK Americas Incorporated, priority 1997, dated 2002) can be followed below.

Where two headings read alike, the source gives them in different places.

What all share (assay type): in vivo
Data set [1] concerns barnyardgrass (Echinochloa crus-galli, ECHCG). As to the kind of experiment: Pre-emerge test, greenhouse herbicide activity screening. As to conditions: Echinochloa crus-galli, pre-emergence, 336 h, read-out: Pre-emerge Herbicidal Activity ECHCG. Put shortly: (§1)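 Visual ratings on a 0-100 scale (0 no damage, 100 all plants dead) were taken at 14 days after treatment. Rates of 15-1000 g ai/ha in acetone, 187 l/ha, were sprayed onto soil one day after planting (pre-emerge) or onto 2-3 leaf plants with 0.25% v/v surfactant (post-emerge).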

The test system of data set [2] is green foxtail (Setaria viridis, SETVI). The data set is described as above. The settings on record: Setaria viridis, pre-emergence, 336 h, read-out: Pre-emerge Herbicidal Activity SETVI. Put shortly:
as §1

Data set [3] has as its system ivyleaf morningglory (Ipomoea hederacea, IPOHE). Described as above. As to conditions: Ipomoea, pre-emergence, 336 h, read-out: Pre-emerge Herbicidal Activity IPOHE. Put shortly: as §1
Data set [4] relates to johnsongrass (Sorghum halepense, SORHA). Described as above. As to conditions: Sorghum halepense, pre-emergence, 336 h, read-out: Pre-emerge Herbicidal Activity SORHA. The method, boiled down:
as §1

In data set [5] the test system is lambsquarters (Chenopodium album, CHEAL). Described as above. The settings on record: Chenopodium album, pre-emergence, 336 h, read-out: Pre-emerge Herbicidal Activity CHEAL. The method, boiled down: as §1
Data set [6] concerns large crabgrass (Digitaria sanguinalis, DIGSA). Described as above. As to conditions: Digitaria sanguinalis, pre-emergence, 336 h, read-out: Pre-emerge Herbicidal Activity DIGSA. Put shortly: as §1
The test system of data set [7] is sicklepod (Cassia obtusifolia, CASOB). Described as above. The settings on record: Senna obtusifolia, pre-emergence, 336 h, read-out: Pre-emerge Herbicidal Activity CASOB. Put shortly:
as §1

For data set [8], the system named is field corn (Zea mays L., var. Dekalb 535, CORN). As to the kind of experiment: Pre-emerge test, crop safety. As to conditions: crop damage rating 0-100, 14 days after application. The method, boiled down:
as §1

The subject of data set [9] is soybean (Glycine max L., var. Pella 86, SOY). The experiment in a line: Pre-emerge test, crop safety. As to conditions: crop damage rating 0-100, 14 days after application. The method, boiled down: as §1
The test system of data set [10] is upland rice (Oryza sp., var. Tebonnet, RICE). The experiment in a line: Pre-emerge test, crop safety. The settings on record: crop damage rating 0-100, 14 days after application. Put shortly: as §1
In data set [11] the test system is common ragweed (Ambrosia artemisizfolia L., AMBEL). The experiment in a line: Post-emerge test, greenhouse herbicide activity screening. The settings on record: post-emerge; for phytotoxicity rating AMBEL: 14 days after application, rating scale 0-100; for Post-emerge Herbicidal Activity AMBEL: phytotoxicity rating 0-100 at 14 days after application. The method, boiled down:
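Compounds in acetone were track-sprayed at 15-1000 g ai/ha (187 l/ha) on sandy loam pots: pre-emerge one day after seeding, post-emerge at 2-3 leaf stage with 0.25% v/v non-ionic surfactant. Phytotoxicity was rated 14 days later on a 0 (no damage) to 100 (complete death) scale.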

Data set [12] has as its system field corn (Zea mays L., var. Dekalb 535, CORN). The experiment in a line: Post-emerge test, crop safety. The settings on record: post-emerge, 14 days after application, rating scale 0-100. Put shortly: as §1
Data set [13] has as its system soybean (Glycine max L., var. Pella 86, SOY). As to the kind of experiment: Post-emerge test, crop safety. As to conditions: 14 days after application, rating scale 0-100. The method, boiled down: as §1
Data set [14] deals with upland rice (Oryza sp., var. Tebonnet, RICE). The experiment in a line: Post-emerge test, crop safety. The settings on record: post-emerge, 14 days after application, rating scale 0-100. The method, boiled down: as §1
The subject of data set [15] is common ragweed (Ambrosia artemisizfolia L., AMBEL). The experiment in a line: Pre-emerge test, greenhouse herbicide activity screening. As to conditions: pre-emerge, phytotoxicity rating 0-100 at 14 days after application. The method, boiled down:
as §1

Setting [16] is: 63 g ai/ha, phytotoxicity rating 0-100, 14 days after application.
Where [17] appears, read: 250 g ai/ha, phytotoxicity rating 0-100, 14 days after application.
Setting [18] is: pre-emerge, rate 63 g ai/ha, phytotoxicity rating 0-100 at 14 days after application.
Setting [19] is: pre-emerge, rate 250 g ai/ha, phytotoxicity rating 0-100 at 14 days after application.

In the case of `COC(=O)Nc1c(OC)c(Cl)cc(F)c1-n1c(=O)cc(C(F)(F)F)n(C)c1=O` [Compound 4-1, 3-(4chloro-6-fluoro-3-methoxy-2-methoxycarbonylaminophenyl)-1-methyl-6-trifluoromethyl-2,4(1H, 3H)-pyrimidinedione], the pest or weed control at 63 g/ha was found to be 10% in data set [1] (setting [16]); 100% in data set [2] (setting [16]); 100% in data set [3] (setting [16]); 60% in [4] (setting [16]); 100% in data set [5] (setting [16]); 60% in [6] (setting [16]). Besides, in data set [7] (setting [16]), the pest or weed control at 63 g/ha was determined as 95%. In addition, the pest or weed control at 250 g/ha in data set [1] (setting [17]), in data set [2] (setting [17]), in [3] (setting [17]), in data set [4] (setting [17]), in data set [5] (setting [17]) and in data set [6] (setting [17]) was 100% each time. For the same molecule, the pest or weed control at 250 g/ha in [7] (setting [17]) was 100%. The “Pre-emerge Herbicidal Activity CORN” value turned out to be 10 in [8] (63 g ai/ha) and 80 in [8] (250 g ai/ha). Also, the results for the “Pre-emerge Herbicidal Activity SOY” value in [9] (63 g ai/ha) and in data set [9] (250 g ai/ha) were 70 and 100, respectively. For the same molecule, the “Pre-emerge Herbicidal Activity RICE” value is recorded as 50 in data set [10] (63 g ai/ha) and 95 in data set [10] (250 g ai/ha). Besides, the figures for the “phytotoxicity rating AMBEL” value in data set [11] (63 g ai/ha) and in data set [11] (250 g ai/ha) were 40 and 90, respectively. Besides, the “phytotoxicity rating CORN (crop damage)” value in data set [12] (63 g ai/ha) was 10; in data set [12] (250 g ai/ha), 20. Further, the “phytotoxicity rating SOY (crop damage)” value came out at 50 in data set [13] (63 g ai/ha) and 100 in data set [13] (250 g ai/ha). Also, the “phytotoxicity rating RICE (crop damage)” value in data set [14] (63 g ai/ha) was 20; in data set [14] (250 g ai/ha), 50.
As for `COc1c(Cl)cc(F)c(-c2nn(C)c(C(F)(F)F)c2Cl)c1N` [Compound 7-2, 4-chloro-3-(2-amino-4-chloro-6-fluoro3-metoxyphenyl)-1-methyl-5-trifluoromethyl-1H-pyrazole], the pest or weed control at 63 g/ha in [1] (setting [18]) was 70%; in [2] (setting [18]), 95%; in [3] (setting [18]) it was 60%; in [4] (setting [18]), 95%; in [5] (setting [18]), 100%; in data set [6] (setting [18]) it was 100%. Moreover, the pest or weed control at 63 g/ha in data set [7] (setting [18]) came out at 30%. The pest or weed control at 250 g/ha in [1] (setting [19]) amounted to 100%; in data set [2] (setting [19]) it was 100%; in data set [3] (setting [19]), 80%; in data set [4] (setting [19]) it was 100%; in data set [5] (setting [19]), 100%; in [6] (setting [19]), 100%. The pest or weed control at 250 g/ha in data set [7] (setting [19]) is 30%. For the same molecule, the “Pre-emerge Herbicidal Activity AMBEL” value came out at 80 in [15] (rate 63 g ai/ha) and 100 in data set [15] (rate 250 g ai/ha). For the same molecule, the “Post-emerge Herbicidal Activity AMBEL” value in data set [11] (63 g ai/ha) turned out to be 0; in data set [11] (250 g ai/ha), 10.
